Key:
[1] = system: CYP1A1 mRNA; test: Induction of CYP1A1 mRNA in HepG2 cells (RT-PCR); format: cell-based, human; details: 24 h incubation, 10 uM, normalized to 18S rRNA
Procedure: HepG2 cells (American Type Culture Collection (ATCC), Manassas, Va.) were cultured using Eagle's minimal essential medium (ATCC), supplemented with 10% fetal calf serum (Invitrogen Life Technologies). The cells were cultured continuously until used in experiments (similar to Examples 2 and 3). Celts were plated at a seeding density of 3.8×10^5 cells per well on 6-well plates (Corning Costar, N.Y., U.S.A.). Cells were allowed to attach for 24 h in a 37° C. humidified incubator with a 5% CO2 atmosphere. Media was replaced with that containing test agents or vehicle (0.1% dimethylsuiphoxide) and cells incubated for a further 24 h. Following the 24 h incubation with test agents, media was removed and RNA prepared using the Purelink RNA mini kit (ThermoFischer, Carlsbad, Calif.). Nucleic acid concentration was determined using a Nanodrop™ spectrophotometer (ThermoScientific) by measuring the OD at 260 nm and RNA purity was evaluated using the OD 260/280 nm ratio, 1 μg RNA was reverse transcribed using SuperScript®VILO™ (ThermoFischer) with cDNA synthesis performed using the following parameters: 10min at 25° C., 2 h at 42° C., 5min at 85° C. (deactivation) followed by a completion temperature de C. […] Results were analyzed by calculating the fold change of CYP1A1 mRNA levels normalized to 18S rRNA (ΔΔCt) in compound treated cells or tissues compared to vehicle levels.

[2] = system: human sebocyte cells; test: MTT cytotoxicity assay in human cultured sebocytes after EROD; format: cell-based
Procedure: The essential methodology for culture and handling of human cultured sebocytes has been described in earlier examples for HEPG2 and NHK cells. Cells are seeded at between 1×10^4 and 2.5×10^4 cells/well in a 96-well microtitre plate. […] The formation of resorufin is quantified by fluorometry with a fluorescence plate reader. Fluorescence is determined at λex 570 nm and λem 590 nm. The amount of resorufin is calculated from a standard curve generated using 0 to 1 μM resorufin in water at ½ log dilutions. The remaining (i.e. all cells present at the beginning of analysis, since only supernatant is taken to assay EROD) live cells are subsequently utilized for the MU cytotoxicity assay. MU is made up in serum-free medium at 5 mg/mi. then added to the cells giving a final concentration of 10% (0.5 mg/ml MIT final) then incubated for 2 h. The medium is carefully removed, then MIT formazan is solubilized by adding 200 μl of DMSO and subsequently mixed on a plate shaker. The absorbance is measured spectrophotometrically at 550 nm and background absorbance at […] is subtracted. A standard curve generated using MTT formazan (dissolved in DMSO) from O—200 μM (0, 2, 5, 10, 20, 50, 100, 200 μM) is used to calculate the final experimental values which are then expressed as (μmol resorufin/mol MTT formazan) or as fold-induction compared to solvent.

[3] = system: HepG2 cells; test: MTT cytotoxicity assay in HepG2 cells after EROD; format: cell-based, human
Procedure: The formation of resorufin is quantified by fluorometry with a fluorescence plate reader. Fluorescence is determined at λex 570 nm and λem 590 nm. The amount of resorufin is calculated from a standard curve generated using 0 to 1 μM resorufin in water at ½ log dilutions. The remaining (i.e. all cells present at the beginning of analysis, since only supernatant is taken to assay EROD) live cells are subsequently utilized for the MIT cytotoxicity assay. MTT is made up in serum-free medium at 5 mg/ml. then added to the cells giving a final concentration of 10% (0.5 mg/ml MTT final) then incubated for 2 h. The medium is carefully removed, then MTT formazan is solubilized by adding 200 μl of DMSO and subsequently mixed on a plate shaker. The absorbance is measured spectra photometrically at 550 nm and background absorbance at 690 nm is subtracted.

[4] = system: CYP1A1 enzyme; test: Induction of CYP1A1 enzyme in human cultured sebocytes, EROD assay; format: cell-based; details: 10 uM, 24 h
Procedure: (§1) Cells are seeded at between 1×10^4 and 2.5×10^4 cells/well in a 96-well microtitre plate. […] 100 μl of medium is then transferred to a fresh black 96-well plate and 130 μl methanol added. The formation of resorufin is quantified by fluorometry with a fluorescence plate reader. Fluorescence is determined at λex 570 nm and λem 590 nm. The amount of resorufin is calculated from a standard curve generated using 0 to 1 μM resorufin in water at ½ log dilutions. The remaining (i.e. all cells present at the beginning of analysis, since only supernatant is taken to assay EROD) live cells are subsequently utilized for the MU cytotoxicity assay. MU is made up in serum-free medium at 5 mg/mi. then added to the cells giving a final concentration of 10% (0.5 mg/ml MIT final) then incubated for 2 h. The medium is carefully removed, then MIT formazan is solubilized by adding 200 μl of DMSO and subsequently mixed on a plate shaker. The absorbance is measured spectrophotometrically at 550 nm and background absorbance at […] is subtracted. A standard curve generated using MTT formazan (dissolved in DMSO) from O—200 μM (0, 2, 5, 10, 20, 50, 100, 200 μM) is used to calculate the final experimental values which are then expressed as (μmol resorufin/mol MTT formazan) or as fold-induction compared to solvent.

[5] = system: CYP1A1; test: as above; format: cell-based; details: cultured sebocytes, probe 7-ethoxyresorufin (8 μM)
Procedure: as §1

## O=c1cc(-c2ccccc2)oc2ccc3ccccc3c12 [D, 3-Phenyl-1H-benzo[f]chromen-1-one, reference compound]
[1]
  CYP1A1 mRNA fold change from vehicle: 596 fold
[2]
  Toxicity threshold: 30 µM
[3]
  Toxicity threshold: >50 µM
[4]
  % change vs. TCDD EROD (Sebs) at 10 uM: 17%
[5]
  EC50 at 24 h: 1000 nM
